From US10981958B2, “Peptide modulator of purinergic receptors” (priority 2016, dated 2021)
Where no end group is shown, it is not given here.

Experiments:
P2X2/3 receptors [1] = target: T1, P2X2/3 receptors (Rattus norvegicus, UniProt P49653+P49654); conditions: agonist sensitivity, dorsal root ganglia neurons; read-out: sensitivity of P2X2/3 receptor to agonist (Kd); cited from earlier work
T1 construct: In the membranes of dorsal root ganglia, along with P2X3 receptors, P2X2 and P2X2/3 receptors are also found; endogenous in cells; host or cells: acutely isolated dorsal root ganglion neurons of 9-12-day Wistar rats
T1 sequence (P49653 1-472): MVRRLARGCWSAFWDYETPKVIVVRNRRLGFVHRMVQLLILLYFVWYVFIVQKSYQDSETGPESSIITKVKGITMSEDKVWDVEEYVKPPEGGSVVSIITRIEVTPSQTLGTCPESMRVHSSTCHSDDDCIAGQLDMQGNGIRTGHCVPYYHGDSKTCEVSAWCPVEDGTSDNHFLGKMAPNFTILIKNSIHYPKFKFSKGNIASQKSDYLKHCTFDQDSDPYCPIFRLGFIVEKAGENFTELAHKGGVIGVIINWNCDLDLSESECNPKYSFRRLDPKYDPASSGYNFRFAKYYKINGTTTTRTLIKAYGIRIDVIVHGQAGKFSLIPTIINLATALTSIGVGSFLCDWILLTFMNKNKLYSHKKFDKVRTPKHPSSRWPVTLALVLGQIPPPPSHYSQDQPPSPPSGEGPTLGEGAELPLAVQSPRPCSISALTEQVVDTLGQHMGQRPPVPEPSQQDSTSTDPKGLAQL
T1 sequence (P49654 1-397): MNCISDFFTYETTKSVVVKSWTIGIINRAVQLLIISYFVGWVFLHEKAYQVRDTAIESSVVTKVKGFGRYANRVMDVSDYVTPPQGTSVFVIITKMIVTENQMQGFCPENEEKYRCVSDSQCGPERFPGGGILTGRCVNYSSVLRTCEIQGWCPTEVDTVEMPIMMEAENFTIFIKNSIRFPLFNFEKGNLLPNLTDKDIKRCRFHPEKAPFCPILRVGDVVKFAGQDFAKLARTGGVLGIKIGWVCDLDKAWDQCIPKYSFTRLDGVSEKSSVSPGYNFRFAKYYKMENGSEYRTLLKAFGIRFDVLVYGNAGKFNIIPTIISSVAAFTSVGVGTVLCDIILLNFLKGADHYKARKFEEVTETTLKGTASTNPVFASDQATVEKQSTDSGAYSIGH

P2X2 receptors [2] = target: T2, P2X2 receptors (Rattus norvegicus, UniProt P49653); conditions: agonist activation; cited from earlier work
T2 construct: In the membranes of dorsal root ganglia, along with P2X3 receptors, P2X2 and P2X2/3 receptors are also found; endogenous in cells; host or cells: acutely isolated dorsal root ganglion neurons of 9-12-day Wistar rats
T2 sequence (P49653 1-472): T1 sequence (P49653 1-472)

P2X2/3 receptors [3] = target: T1, P2X2/3 receptors; assay: Whole-cell patch clamp of P2X2/3-mediated currents in rat dorsal root ganglia neurons; format: cell-based; conditions: PT6 50 nM (FIG. 2)
Experimental: (§1) In the membranes of dorsal root ganglia, along with P2X3 receptors, P2X2 and P2X2/3 receptors are also found [Burgard E. C. et al. P2X receptor-mediated ionic currents in dorsal root ganglion neurons//J. Neurophysiol., 1999, V. 82, P. 1590-1598]. The time for exit of P2X3 receptors from desensitization is very large compared to P2X2 and P2X2/3 receptors. With the agonist application for 1 min, all observed responses, except for the first, are mediated by P2X2 and P2X2/3 receptors. The sensitivity of P2X2/3 receptor to ATP and α,β-methylene-ATP is similar (Kd ˜30 μM), and the minimal concentration of α,β-methylene-ATP necessary for activation of P2X2 receptors is at least 100 μM. The equivalence of ionic currents observed in response to consecutive application of ATP and α,β-methylene-ATP indicates a significant predominance of P2X2/3 receptors on the cell membrane. In cells, which generate ionic currents of various amplitude, i.e. greater in response to ATP application, and very low in response to application of α,β-methylene-ATP, the membrane contains mainly P2X2 receptors. […] Therefore, it has been established suddenly that peptide PT6 acts selectively on the receptors of P2X3 isoform and is a selective antagonist of purinergic P2X3 receptors.

P2X2 receptors [4] = target: T2, P2X2 receptors; assay: Whole-cell patch clamp of P2X2-mediated currents in rat dorsal root ganglia neurons; format: cell-based; conditions: PT6 50 nM (FIG. 2)
Experimental: as §1

P2X3 receptors = P2X3 receptors (Rattus norvegicus, UniProt P49654); conditions: PT6 50 nM; rat sensory (dorsal root ganglia) neurons; agonist CTP 100 μM; holding potential −60 mV
Experimental: Neurons for the experiments are isolated from dorsal root ganglia of 9-12-day Wistar rats. The ganglia are placed to a Petri dish filled with the extracellular solution (130 mM NaCl, 5 mM KCl, 2 mM CaCl2, 2 mM MgCl2, 20 mM HEPES, pH 7.4) at room temperature, and then transferred to the enzyme solution (1 mg of trypsin and 2 mg of collagenase in 2 ml of the extracellular solution) heated up to 35° C., and incubated for 10 min. Then the ganglia are rinsed thoroughly with a pure (without enzymes) extracellular solution in another Petri dish. Single cells are isolated from the rinsed ganglia using fine needles. A dish with single cells is transferred to the electrophysiological unit. The experiments begin after all cells are settled to the dish bottom in 30 min after isolation.
Electrophysiological tests are performed using the whole-cell configuration of the classic method of patch clamp and the approach of a rapid application of a substance (agonist), which binds to P2X3 receptors and induces ion channel opening. The electrophysiological setup consists of three parts: microscope; sample application system (“jumping table”; Pharma Robot, Ukraine); and recording system of the current flowing through channels in the cell plasma membrane. […] Currents are recorded at the holding potential of −60 mV and room temperature with a Model 2400 Patch Clamp Amplifier (A-M Systems, USA). […]

Compound | Kd (P2X2/3 receptors [1]) [µM] | minimal concentration necessary for activation of P2X2 receptors (P2X2 receptors [2]) | effect on ionic currents mediated by P2X2/3 receptors (P2X2/3 receptors [3]) | effect on ionic currents mediated by P2X2 receptors (P2X2 receptors [4]) | decrease of the current amplitude mediated by P2X3 receptors (inhibition of currents) (P2X3 receptors) [%]
Nc1ncnc2c1ncn2[C@@H]1O[C@H](COP(=O)(O)OP(=O)(O)OP(=O)(O)O)[C@@H](O)[C@H]1O [ATP, adenosine triphosphate] | ~30 | – | – | – | –
Nc1ncnc2c1ncn2[C@@H]1O[C@H](COP(=O)(O)CP(=O)(O)OP(=O)(O)O)[C@@H](O)[C@H]1O [α,β-methylene-ATP] | ~30 | at least 100 μM | – | – | –
GYCATKGIKCNDIHCCSGLKCDSKRKVCVKG (cysteine pairing not given here) [PT6] | – | – | does not affect | does not affect | 80
